Test results as given in ChEMBL document CHEMBL1129911, “Synthesis, characterization, interaction with DNA, and antitumor activity of a cis-Dichloroplatinum(II) complex linked to an intercalator via one methylene chain” (Bioorg Med Chem Lett, 1997).

Test system: Nucleic Acid
Assay: The association constant was obtained from absorption spectral change
Assay type: nucleic-acid assay

Q: `NCCNCc1c2ccccc2nc2ccccc12` was tested. Which K ass did it give?
A: 36000 M⁻¹
